Experimental data: patent publication US10464977B2 (University of Maryland, Baltimore, priority 2016, dated 2019)
Residues, ends and D or L forms follow the SMILES beside them.

Assays:
Sap9 = Sap9 (Candida albicans, UniProt Q59SU1); experiment: in vitro; settings: 2 h, 37° C.; for degradation by Sap9 (in words): 3.13 μg mL^−1 Sap9, 150 μg mL^−1 peptide; for degradation at higher Sap9 concentration (in words): 6.25 μg mL^−1 Sap9, 150 μg mL^−1 peptide
Procedure: (§1) Experiments were done in 1 mM NaPB. The mixtures were incubated at 37° C. for 2 h, and NaPB with no Sap was used as a control. After the incubation, the samples were mixed with tricine sample buffer (without Coomassie Blue G-250, except in control samples) containing β-mercaptoethanol and boiled for 5 min at 100° C. to inactivate the proteases. The degraded and non-degraded peptides were separated by gel electrophoresis in 10-20% Tris-tricine gels (Bio-Rad), and the gels were then fixed in a 10% acetic acid/40% methanol/50% water mixture for 30 min. The fixed gels were stained with Bio-Safe Coomassie stain (Bio-Rad) for 1 h and washed with fresh water three times, once overnight and then twice for at least 2 h each time. The gels were imaged on a Chemidoc imager (Bio-Rad), and densitometric analysis was done with Image Lab software (Bio-Rad). […] Three replicates of the assay were done.
(§2) To measure the antifungal activity of the peptides following degradation by the Saps, the antifungal activity assay was performed as described above, except the peptides were first exposed to Saps. The peptide fragments were prepared by incubating each peptide (150 μg mL^−1) with 6.25 μg mL^−1 Sap9 or 18 μg mL^−1 Sap2 for 2 h at 37° C. The enzymes were then inactivated by heating at 100° C. for 5 min. As controls, each peptide was also incubated with only NaPB buffer. Samples were then stored at −20° C. until use in the antifungal activity assay.
(§3) The intact peptide was then separated from the degradation products using gel electrophoresis and quantified the level of degradation using densitometric analysis of Coomassie-stained gels.
(§4) To amplify differences in antifungal activity due to degradation by the Saps, the concentrations of the Saps was increased by at least two-fold compared to the concentrations used for the gel electrophoresis data in FIGS. 1A-1D (to 6.25 μg mL^−1 for Sap9 and 18 μg mL^−1 for Sap2).

Sap2 = Sap2 (Candida albicans, UniProt P0DJ06); experiment: in vitro; settings: 2 h, 37° C.; for degradation by Sap2 (in words): 6.25 μg mL^−1 Sap2, 150 μg mL^−1 peptide
Procedure: as §1, §2, §3, §4

[1] = tested on: C. albicans cells (ATCC 90028); experiment: Degradation of peptides by whole C. albicans cells, gel densitometry; format: in vitro ADME; settings: 1×10^9 cells mL^−1, 150 μg mL^−1 peptide, 2 h, 37° C., 100 mM NaPB
Procedure: For degradation with C. albicans, a single colony of the ATCC 90028 strain (American Type Culture Collection) was used to inoculate YPD. The culture was grown overnight, subcultured, and grown to an optical density of 1-1.2 at OD600. All incubations were done at 30° C. The cells were washed three times in 100 mM NaPB and diluted to 2×10^9 cells mL^−1. Equal volumes of cells and peptides were mixed and incubated for 2 h at 37° C. The cells were removed by centrifugation, and the supernatants were mixed with tricine sample buffer and boiled for 10 min. The samples were then run on gels and analyzed as described above for degradation by the Saps. Three biological replicates were performed.
After observing the effect of residue modifications on the cleavage of Hst-5 by the purified recombinant Saps, whether incubation of the peptides with whole C. albicans cells expressing Saps (rather than Saps produced recombinantly) would yield similar results was evaluated. Hst-5 and the synthetic peptides were incubated with C. albicans cells for 2 h at 37° C. in 100 mM NaPB. The high ionic strength of this buffer prevents internalization of the peptides by C. albicans (4) allowing analysis of degradation of the peptides without the confounding effects of peptide internalization, which would reduce the amount of peptide in the reaction buffer.

Sequence of Sap9 (Q59SU1 18-520): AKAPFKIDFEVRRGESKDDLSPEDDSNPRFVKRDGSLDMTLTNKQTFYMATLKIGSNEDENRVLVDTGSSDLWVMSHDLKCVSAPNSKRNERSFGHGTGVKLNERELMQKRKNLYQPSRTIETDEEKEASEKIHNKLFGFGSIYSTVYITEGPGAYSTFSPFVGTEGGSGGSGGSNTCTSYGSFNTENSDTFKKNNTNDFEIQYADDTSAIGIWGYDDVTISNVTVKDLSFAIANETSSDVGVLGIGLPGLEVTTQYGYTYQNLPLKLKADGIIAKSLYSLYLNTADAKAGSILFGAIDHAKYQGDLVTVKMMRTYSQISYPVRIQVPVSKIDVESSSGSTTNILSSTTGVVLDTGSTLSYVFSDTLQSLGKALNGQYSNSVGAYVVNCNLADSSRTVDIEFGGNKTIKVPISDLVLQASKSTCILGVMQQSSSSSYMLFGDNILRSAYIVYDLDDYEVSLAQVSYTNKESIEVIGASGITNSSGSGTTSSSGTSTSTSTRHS
Sequence of Sap2 (P0DJ06 57-398): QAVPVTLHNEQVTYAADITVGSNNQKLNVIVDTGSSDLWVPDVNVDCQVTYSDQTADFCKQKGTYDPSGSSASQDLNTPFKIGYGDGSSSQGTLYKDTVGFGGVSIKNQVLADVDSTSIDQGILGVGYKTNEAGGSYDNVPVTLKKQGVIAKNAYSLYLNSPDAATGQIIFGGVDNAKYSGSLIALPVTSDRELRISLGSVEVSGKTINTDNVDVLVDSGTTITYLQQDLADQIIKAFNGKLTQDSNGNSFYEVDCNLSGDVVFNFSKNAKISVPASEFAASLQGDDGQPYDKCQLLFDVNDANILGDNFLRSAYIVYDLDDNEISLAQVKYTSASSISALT

Row | SMILES | degradation by Sap9 (in words) (Sap9) | degradation by Sap2 (in words) (Sap2) | degradation by C. albicans cells (in words) [1] | degradation at higher Sap9 concentration (in words) (Sap9) | intact peptide at higher Sap2 concentration (in words) (Sap2; 18 μg mL^−1 Sap2, 150 μg mL^−1 peptide)
1 | CC(C)C[C@H](NC(=O)[C@H](Cc1c[nH]cn1)NC(=O)[C@H](Cc1ccccc1)NC(=O)[C@H](CCCCN)NC(=O)[C@H](CCCNC(=N)N)NC(=O)[C@H](CCCCN)NC(=O)[C@H](Cc1ccc(O)cc1)NC(=O)CNC(=O)[C@H](Cc1c[nH]cn1)NC(=O)[C@H](Cc1c[nH]cn1)NC(=O)[C@H](CCCNC(=N)N)NC(=O)[C@H](CCCCN)NC(=O)[C@H](C)NC(=O)[C@H](Cc1c[nH]cn1)NC(=O)[C@H](CO)NC(=O)[C@@H](N)CC(=O)O)C(=O)N[C@@H](CCCCN)C(=O)N[C@@H](Cc1c[nH]cn1)C(=O)N[C@@H](Cc1c[nH]cn1)C(=O)N[C@@H](CO)C(=O)N[C@@H](Cc1c[nH]cn1)C(=O)N[C@@H](CCCNC(=N)N)C(=O)NCC(=O)N[C@@H](Cc1ccc(O)cc1)C(=O)O [Peptide E16L] (H-DSHAKRHHGYKRKFHLKHHSHRGY-OH; N-terminus and C-terminus assumed) | increased compared to Hst-5 | increased compared to Hst-5 |  |  | 
2 | CC(C)C[C@H](NC(=O)[C@H](C)NC(=O)[C@H](Cc1c[nH]cn1)NC(=O)[C@H](CO)NC(=O)[C@@H](N)CC(=O)O)C(=O)N[C@@H](CCCNC(=N)N)C(=O)N[C@@H](Cc1c[nH]cn1)C(=O)N[C@@H](Cc1c[nH]cn1)C(=O)NCC(=O)N[C@@H](Cc1ccc(O)cc1)C(=O)N[C@@H](CCCCN)C(=O)N[C@@H](CCCNC(=N)N)C(=O)N[C@@H](CCCCN)C(=O)N[C@@H](Cc1ccccc1)C(=O)N[C@@H](Cc1c[nH]cn1)C(=O)N[C@@H](CCC(=O)O)C(=O)N[C@@H](CCCCN)C(=O)N[C@@H](Cc1c[nH]cn1)C(=O)N[C@@H](Cc1c[nH]cn1)C(=O)N[C@@H](CO)C(=O)N[C@@H](Cc1c[nH]cn1)C(=O)N[C@@H](CCCNC(=N)N)C(=O)NCC(=O)N[C@@H](Cc1ccc(O)cc1)C(=O)O [Peptide K5L] (H-DSHALRHHGYKRKFHEKHHSHRGY-OH; N-terminus and C-terminus assumed) | greater degradation than their arginine-substituted counterparts or parent Hst-5 |  | decrease in proteolysis | not intact | 
3 | C[C@H](NC(=O)[C@H](Cc1c[nH]cn1)NC(=O)[C@H](CO)NC(=O)[C@@H](N)CC(=O)O)C(=O)N[C@@H](CCCNC(=N)N)C(=O)N[C@@H](CCCNC(=N)N)C(=O)N[C@@H](Cc1c[nH]cn1)C(=O)N[C@@H](Cc1c[nH]cn1)C(=O)NCC(=O)N[C@@H](Cc1ccc(O)cc1)C(=O)N[C@@H](CCCCN)C(=O)N[C@@H](CCCNC(=N)N)C(=O)N[C@@H](CCCCN)C(=O)N[C@@H](Cc1ccccc1)C(=O)N[C@@H](Cc1c[nH]cn1)C(=O)N[C@@H](CCC(=O)O)C(=O)N[C@@H](CCCCN)C(=O)N[C@@H](Cc1c[nH]cn1)C(=O)N[C@@H](Cc1c[nH]cn1)C(=O)N[C@@H](CO)C(=O)N[C@@H](Cc1c[nH]cn1)C(=O)N[C@@H](CCCNC(=N)N)C(=O)NCC(=O)N[C@@H](Cc1ccc(O)cc1)C(=O)O [Peptide K5R] (H-DSHARRHHGYKRKFHEKHHSHRGY-OH; N-terminus and C-terminus assumed) |  |  | no significant effect |  | no statistically significant amount of these peptides remained
4 | CC(C)C[C@H](NC(=O)[C@H](Cc1ccc(O)cc1)NC(=O)CNC(=O)[C@H](Cc1c[nH]cn1)NC(=O)[C@H](Cc1c[nH]cn1)NC(=O)[C@H](CCCNC(=N)N)NC(=O)[C@H](CCCCN)NC(=O)[C@H](C)NC(=O)[C@H](Cc1c[nH]cn1)NC(=O)[C@H](CO)NC(=O)[C@@H](N)CC(=O)O)C(=O)N[C@@H](CCCNC(=N)N)C(=O)N[C@@H](CCCCN)C(=O)N[C@@H](Cc1ccccc1)C(=O)N[C@@H](Cc1c[nH]cn1)C(=O)N[C@@H](CCC(=O)O)C(=O)N[C@@H](CCCCN)C(=O)N[C@@H](Cc1c[nH]cn1)C(=O)N[C@@H](Cc1c[nH]cn1)C(=O)N[C@@H](CO)C(=O)N[C@@H](Cc1c[nH]cn1)C(=O)N[C@@H](CCCNC(=N)N)C(=O)NCC(=O)N[C@@H](Cc1ccc(O)cc1)C(=O)O [Peptide K11L] (H-DSHAKRHHGYLRKFHEKHHSHRGY-OH; N-terminus and C-terminus assumed) | greater degradation than their arginine-substituted counterparts or parent Hst-5 |  |  | not intact | 
5 | C[C@H](NC(=O)[C@H](Cc1c[nH]cn1)NC(=O)[C@H](CO)NC(=O)[C@@H](N)CC(=O)O)C(=O)N[C@@H](CCCCN)C(=O)N[C@@H](CCCNC(=N)N)C(=O)N[C@@H](Cc1c[nH]cn1)C(=O)N[C@@H](Cc1c[nH]cn1)C(=O)NCC(=O)N[C@@H](Cc1ccc(O)cc1)C(=O)N[C@@H](CCCNC(=N)N)C(=O)N[C@@H](CCCNC(=N)N)C(=O)N[C@@H](CCCCN)C(=O)N[C@@H](Cc1ccccc1)C(=O)N[C@@H](Cc1c[nH]cn1)C(=O)N[C@@H](CCC(=O)O)C(=O)N[C@@H](CCCNC(=N)N)C(=O)N[C@@H](Cc1c[nH]cn1)C(=O)N[C@@H](Cc1c[nH]cn1)C(=O)N[C@@H](CO)C(=O)N[C@@H](Cc1c[nH]cn1)C(=O)N[C@@H](CCCNC(=N)N)C(=O)NCC(=O)N[C@@H](Cc1ccc(O)cc1)C(=O)O [Peptide K11R-K17R] (H-DSHAKRHHGYRRKFHERHHSHRGY-OH; N-terminus and C-terminus assumed) | no observable degradation | no observable degradation |  |  | 
6 | C[C@H](NC(=O)[C@H](Cc1c[nH]cn1)NC(=O)[C@H](CO)NC(=O)[C@@H](N)CC(=O)O)C(=O)N[C@@H](CCCCN)C(=O)N[C@@H](CCCNC(=N)N)C(=O)N[C@@H](Cc1c[nH]cn1)C(=O)N[C@@H](Cc1c[nH]cn1)C(=O)NCC(=O)N[C@@H](Cc1ccc(O)cc1)C(=O)N[C@@H](CCCNC(=N)N)C(=O)N[C@@H](CCCNC(=N)N)C(=O)N[C@@H](CCCCN)C(=O)N[C@@H](Cc1ccccc1)C(=O)N[C@@H](Cc1c[nH]cn1)C(=O)N[C@@H](CCC(=O)O)C(=O)N[C@@H](CCCCN)C(=O)N[C@@H](Cc1c[nH]cn1)C(=O)N[C@@H](Cc1c[nH]cn1)C(=O)N[C@@H](CO)C(=O)N[C@@H](Cc1c[nH]cn1)C(=O)N[C@@H](CCCNC(=N)N)C(=O)NCC(=O)N[C@@H](Cc1ccc(O)cc1)C(=O)O [Peptide K11R] (H-DSHAKRHHGYRRKFHEKHHSHRGY-OH; N-terminus and C-terminus assumed) | did not show a significant increase in resistance to the protease |  | did not show a significant difference in degradation of the peptide compared to Hst-5 | significant reduction in degradation compared to Hst-5 | 
